Measured values from ChEMBL document CHEMBL3585309, “Peroxisome Proliferator-Activated Receptor γ (PPARγ) and Ligand Choreography: Newcomers Take the Stage” (J Med Chem, 2015).
One block for each compound: values may come before it.

Assays:
[1] = target: T1, Peroxisome proliferator-activated receptor gamma (Homo sapiens, UniProt P37231); test: Activity at PPARgamma (unknown origin) assessed as transactivation activity by reporter gene assay
T1 sequence (P37231 whole entry): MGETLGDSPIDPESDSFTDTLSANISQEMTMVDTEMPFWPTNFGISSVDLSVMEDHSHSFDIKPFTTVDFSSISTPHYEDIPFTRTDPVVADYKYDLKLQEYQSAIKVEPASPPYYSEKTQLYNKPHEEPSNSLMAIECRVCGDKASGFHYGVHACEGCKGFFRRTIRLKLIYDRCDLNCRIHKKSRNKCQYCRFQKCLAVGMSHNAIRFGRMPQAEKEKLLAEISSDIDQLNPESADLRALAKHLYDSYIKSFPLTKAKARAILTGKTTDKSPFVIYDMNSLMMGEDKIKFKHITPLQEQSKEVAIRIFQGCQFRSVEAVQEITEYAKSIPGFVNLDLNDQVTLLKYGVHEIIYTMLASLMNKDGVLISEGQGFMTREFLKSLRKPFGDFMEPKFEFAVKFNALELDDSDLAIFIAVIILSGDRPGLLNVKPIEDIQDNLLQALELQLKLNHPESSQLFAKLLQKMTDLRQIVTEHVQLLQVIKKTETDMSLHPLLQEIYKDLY

[2] = target: T2, Peroxisome proliferator-activated receptor gamma (Homo sapiens) (UniProt P37231); test: Activity at PPARgamma (unknown origin) assessed as transactivation activity by reporter gene assay relative to rosiglitazone
T2 sequence (whole entry): T1 sequence (P37231 whole entry)

[3] = target: T2, Peroxisome proliferator-activated receptor gamma (Homo sapiens); test: Activity at human full length PPARgamma transfected in COS7 cells assessed as transactivation activity by reporter gene assay relative to rosiglitazone; format: cell-based; conditions: COS-7
[4] = target: T1, Peroxisome proliferator-activated receptor gamma; test: Activity at human PPARgamma transfected in HEK293 cells assessed as transactivation activity after 24 hrs by Dual-luciferase reporter gene assay relative to rosiglitazone; format: cell-based
[5] = target: T2, Peroxisome proliferator-activated receptor gamma (Homo sapiens); test: Activity at PPARgamma (unknown origin) transfected in 293T cells assessed as transactivation activity after 24 hrs by PPRE-TK- luciferase reporter gene assay relative to rosiglitazone; format: cell-based
[6] = target: T1, Peroxisome proliferator-activated receptor gamma; test: Activity at human PPARgamma transfected in HEK293 cells assessed as transactivation activity by luciferase reporter gene assay; format: cell-based
[7] = target: T2, Peroxisome proliferator-activated receptor gamma (Homo sapiens); test: Activity at human full length PPARgamma LBD transfected in COS7 cells assessed as transactivation activity by reporter gene assay relative to rosiglitazone; format: cell-based; conditions: COS-7
[8] = target: T1, Peroxisome proliferator-activated receptor gamma; test: Activity at full length human PPARgamma transfected in CV1 cells assessed as transactivation activity after 24 hrs by PPRE-TK- luciferase reporter gene assay; format: cell-based, CV-1
[9] = target: T2, Peroxisome proliferator-activated receptor gamma (Homo sapiens); test: Activity at full length human PPARgamma transfected in CV1 cells assessed as transactivation activity after 24 hrs by PPRE-TK- luciferase reporter gene assay relative to rosiglitazone; format: cell-based; conditions: CV-1

EC50 ([1]; read-out: EC50): 0.183 µM
%max [2]: 60%
SMILES: CC[C@H](OC(=O)N(Cc1ccccc1)C(=O)Nc1cc(OC)cc(OC)c1)c1cc(-c2ccc(OC(C)(C)C(=O)O)cc2)no1

EC50 [1]: Not Active
SMILES: Cc1c(C)n(Cc2ccc(-c3ccccc3C(=O)O)cc2)c2ccc(C(=O)N[C@@H](C)c3ccc([N+](=O)[O-])cc3)cc12

%max [3]: 60%
SMILES: CCCCCCCCCC(=O)O

EC50 [4]: Not Active
SMILES: Cc1c(C)n(Cc2ccc(-c3ccccc3C(=O)O)cc2)c2ccc(C(=O)NCc3cccnc3)cc12

%max [5]: 30%
SMILES: C[C@@H]1O[C@@H](O[C@@H]2[C@H](O[C@H]3C[C@]4(C)[C@H](C[C@@H](O)[C@@H]5[C@@](C)([C@]6(C)CC[C@H](C(C)(C)O)O6)CC[C@]54C)[C@@]4(C)CC[C@H](O)C(C)(C)[C@H]34)O[C@H](CO)[C@@H](O)[C@@H]2O)[C@H](O)[C@H](O)[C@H]1O

EC50 [6]: 0.155 µM
SMILES: Cc1oc(-c2ccccc2)nc1CCOc1ccc(C[C@@H](NC(=O)/C=C/c2ccco2)C(=O)O)cc1

SMILES: C[C@H](CCC(=O)O)C[C@H](C)C[C@H](C)C(=O)/C=C(\O)[C@H](C)C[C@H](C)C/C=C/[C@@H](C)[C@@H](O)[C@@H](C)[C@@H](O)C[C@@H]1CC[C@@](C)([C@H]2CC[C@@](C)([C@@H](C)O)O2)O1
%max [7]: 35%

EC50 ([1]; read-out: EC50): 0.00038 µM
%max [2]: 70%
SMILES: CC[C@@H](OC(=O)N(Cc1ccccc1)C(=O)Nc1cc(OC)cc(OC)c1)c1cc(-c2ccc(OC(C)(C)C(=O)O)cc2)no1

EC50 [8]: 4.5 µM
%max [9]: 30%
SMILES: CCCc1nc2c(C)cc(-c3nc4ccccc4n3C)cc2n1Cc1ccc(-c2ccccc2C(=O)O)cc1
